In patent US20240067702A1, “LACTAM-MODIFIED P[…]” (DONGBAO PURPLE STAR (HANGZHOU) BIOPHARMACEUTICAL CO., LTD., priority 2020, published 2024) one finds EC50 data, which are given here for four molecules.

*1 amine or outer side, *2 acyl side, *3 side chain or, on linkers, in order; H or OH if unused. Where a SMILES comes first, the peptide text is derived from it. Bridges are numbered along the chain shown (N, C = ends). Side-chain parts run from the residue outwards. [ ]: non-standard residue; d: D form. The star is where a group is joined. C20 diacid = O=C(O)CCCCCCCCCCCCCCCCCCC(=O)*; C18 diacid = O=C(O)CCCCCCCCCCCCCCCCC(=O)*; γGlu = O=C(O)[C@H](CCC(=O)[*:2])N[*:1]; AEEA = NCCOCCOCC(=O)O; Aib = CC(C)(N)C(=O)O

One test addresses T1, GIPR (Homo sapiens, UniProt P48546).
T1 construct: host or cells: CHO
T1 sequence (P48546 22-466): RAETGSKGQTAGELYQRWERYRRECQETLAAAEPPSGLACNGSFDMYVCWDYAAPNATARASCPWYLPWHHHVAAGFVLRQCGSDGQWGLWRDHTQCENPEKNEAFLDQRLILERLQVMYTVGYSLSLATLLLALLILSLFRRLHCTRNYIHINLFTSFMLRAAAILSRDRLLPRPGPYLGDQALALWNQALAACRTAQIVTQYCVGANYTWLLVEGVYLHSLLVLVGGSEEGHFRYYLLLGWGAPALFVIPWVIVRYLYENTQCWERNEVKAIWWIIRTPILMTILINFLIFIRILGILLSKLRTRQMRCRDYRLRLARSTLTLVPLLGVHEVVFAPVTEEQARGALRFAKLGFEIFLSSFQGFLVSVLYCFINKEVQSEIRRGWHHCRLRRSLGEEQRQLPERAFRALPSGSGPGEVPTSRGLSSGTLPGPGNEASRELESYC
The experiment in a line: GIPR agonist activity test in vitro (cAMP assay). Type of test: cell-based. The note with it: CHO host cell. On the procedure:
(§1) The cell strains were constructed by Shanghai WuXi AppTec.
(§2) The test compound was serially diluted 4-fold with 10 points. The initial concentration was 30 μM, and the dilution was completed with Bravo.
(§3) 1) 100 nL of the compound was transferred to OptiPlate-384 plate using Echo.
(§4) 7) The GLP-1R/GIPR cell concentration was diluted to 2.0*10^5/mL with the experimental buffer.
(§5) 8) […] of the diluted cell suspension was transferred into the OptiPlate-384 plate.
(§6) 9) The diluted cell suspension was incubated at room temperature for 30 minutes.
(§7) 2) 10 μL of cAMP detection reagent was added.
(§8) 3) The OptiPlate-384 plate was covered with TopSeal-A film and incubated at room temperature for 60 minutes.
(§9) TopSeal-A was removed and read in EnVision.

In another test the target is T2, GLP-1R (Homo sapiens, UniProt P43220).
T2 construct: host or cells: HEK293
The test is described as follows: GLP-1R agonist activity test in vitro (cAMP assay). Format: cell-based. The note with it: HEK293 host cell. On the procedure:
as §1, §2, §3, §4, §5, §6, §7, §8, §9
(In general: cAMP levels reflect the balance of adenylyl cyclase and phosphodiesterase activity.)

Setting [1] is: GIPR Agonist Activity EC50 (−) 1% HSA, without 1% HSA.
The mark [2] stands for this setting: GLP-IR Agonist Activity EC50 (−) 1% HSA, without 1% HSA.

T2 sequence (P43220 24-463): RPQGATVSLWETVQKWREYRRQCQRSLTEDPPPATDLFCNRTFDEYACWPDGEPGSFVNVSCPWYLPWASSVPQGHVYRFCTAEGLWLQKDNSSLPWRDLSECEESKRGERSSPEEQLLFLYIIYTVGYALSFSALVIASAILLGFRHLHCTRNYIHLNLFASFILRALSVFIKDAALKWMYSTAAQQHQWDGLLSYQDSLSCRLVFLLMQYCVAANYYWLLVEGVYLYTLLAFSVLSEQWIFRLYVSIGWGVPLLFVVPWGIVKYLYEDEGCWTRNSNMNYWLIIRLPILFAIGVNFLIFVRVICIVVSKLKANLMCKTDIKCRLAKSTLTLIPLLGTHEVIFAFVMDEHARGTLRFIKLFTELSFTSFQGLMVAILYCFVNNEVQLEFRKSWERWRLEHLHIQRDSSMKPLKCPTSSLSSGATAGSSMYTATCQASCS

`CC[C@H](C)[C@H](NC(=O)[C@H](CO)NC(=O)[C@H](Cc1ccc(O)cc1)NC(=O)[C@H](CC(=O)O)NC(=O)[C@H](CO)NC(=O)[C@@H](NC(=O)[C@H](Cc1ccccc1)NC(=O)[C@@H](NC(=O)CNC(=O)[C@H](CCC(=O)O)NC(=O)C(C)(C)NC(=O)[C@@H](N)Cc1ccc(O)cc1)[C@@H](C)O)[C@@H](C)O)C(=O)NC(C)(C)C(=O)N[C@@H](CC(C)C)C(=O)N[C@@H](CC(=O)O)C(=O)N[C@@H](CCCCN)C(=O)N[C@@H](CCCCNC(=O)COCCOCCNC(=O)COCCOCCNC(=O)CC[C@H](NC(=O)CCCCCCCCCCCCCCCCCCC(=O)O)C(=O)O)C(=O)N[C@@H](C)C(=O)N[C@@H](CCC(N)=O)C(=O)N[C@H]1CCCCNC(=O)CC[C@@H](C(=O)N[C@@H](Cc2c[nH]c3ccccc23)C(=O)N[C@@H](CC(C)C)C(=O)N[C@@H](CC(C)C)C(=O)N[C@@H](C)C(=O)NCC(=O)NCC(=O)N2CCC[C@H]2C(=O)N[C@@H](CO)C(=O)N[C@@H](CO)C(=O)NCC(=O)N[C@@H](C)C(=O)N2CCC[C@H]2C(=O)N2CCC[C@H]2C(=O)N2CCC[C@H]2C(=O)N[C@@H](CO)C(N)=O)NC(=O)[C@H](C(C)C)NC(=O)[C@H](Cc2ccccc2)NC(=O)[C@H](C)NC1=O` [WX-007] (H-Y[Aib]EGTFTSDYSI[Aib]LDKK([AEEA-AEEA-γGlu-C20 diacid])AQKAFVEWLLAGGPSSGAPPPS-NH2; lactam 20-24): the EC50 (as a rule, the concentration at which the effect is half-maximal) at GIPR (setting [1]) is 0.13 nM; on GLP-1R (setting [2]) it was 0.14 nM.

On to `CC[C@H](C)[C@H](NC(=O)[C@H](CC(C)C)NC(=O)[C@H](Cc1c[nH]c2ccccc12)NC(=O)[C@@H]1CCC(=O)NCCCC[C@H](NC(=O)[C@H](CCC(N)=O)NC(=O)[C@H](C)NC(=O)[C@H](CCCCNC(=O)COCCOCCNC(=O)COCCOCCNC(=O)CC[C@H](NC(=O)CC[C@H](NC(=O)CCCCCCCCCCCCCCCCC(=O)O)C(=O)O)C(=O)O)NC(=O)[C@H](CCCCN)NC(=O)[C@H](CC(=O)O)NC(=O)[C@H](CC(C)C)NC(=O)C(C)(C)NC(=O)[C@@H](NC(=O)[C@H](CO)NC(=O)[C@H](Cc2ccc(O)cc2)NC(=O)[C@H](CC(=O)O)NC(=O)[C@H](CO)NC(=O)[C@@H](NC(=O)[C@H](Cc2ccccc2)NC(=O)[C@@H](NC(=O)CNC(=O)[C@H](CCC(=O)O)NC(=O)C(C)(C)NC(=O)[C@@H](N)Cc2ccc(O)cc2)[C@@H](C)O)[C@@H](C)O)[C@@H](C)CC)C(=O)N[C@@H](C)C(=O)N[C@@H](Cc2ccccc2)C(=O)N[C@@H](C(C)C)C(=O)N1)C(=O)N[C@@H](C)C(=O)NCC(=O)NCC(=O)N1CCC[C@H]1C(=O)N[C@@H](CO)C(=O)N[C@@H](CO)C(=O)NCC(=O)N[C@@H](C)C(=O)N1CCC[C@H]1C(=O)N1CCC[C@H]1C(=O)N1CCC[C@H]1C(=O)N[C@@H](CO)C(N)=O` [WX-003] (H-Y[Aib]EGTFTSDYSI[Aib]LDKK([AEEA-AEEA-γGlu-γGlu-C18 diacid])AQKAFVEWLIAGGPSSGAPPPS-NH2; lactam 20-24), for which the EC50 at GIPR (setting [1]) stood at 0.3 nM; on GLP-1R (setting [2]), 0.09 nM.

Consider `CC[C@H](C)[C@H](NC(=O)[C@H](CC(C)C)NC(=O)[C@H](Cc1c[nH]c2ccccc12)NC(=O)[C@H](CCCCNC(=O)COCCOCCNC(=O)COCCOCCNC(=O)CC[C@H](NC(=O)CCCCCCCCCCCCCCCCCCC(=O)O)C(=O)O)NC(=O)[C@@H](NC(=O)[C@H](Cc1ccccc1)NC(=O)[C@H](C)NC(=O)[C@@H]1CCCCNC(=O)CC[C@H](NC(=O)[C@H](CCCCN)NC(=O)[C@H](CC(=O)O)NC(=O)[C@H](CC(C)C)NC(=O)C(C)(C)NC(=O)[C@@H](NC(=O)[C@H](CO)NC(=O)[C@H](Cc2ccc(O)cc2)NC(=O)[C@H](CC(=O)O)NC(=O)[C@H](CO)NC(=O)[C@@H](NC(=O)[C@H](Cc2ccccc2)NC(=O)[C@@H](NC(=O)CNC(=O)[C@H](CCC(=O)O)NC(=O)C(C)(C)NC(=O)[C@@H](N)Cc2ccc(O)cc2)[C@@H](C)O)[C@@H](C)O)[C@@H](C)CC)C(=O)N[C@@H](C)C(=O)N[C@@H](CCC(N)=O)C(=O)N1)C(C)C)C(=O)N[C@@H](C)C(=O)NCC(=O)NCC(=O)N1CCC[C@H]1C(=O)N[C@@H](CO)C(=O)N[C@@H](CO)C(=O)NCC(=O)N[C@@H](C)C(=O)N1CCC[C@H]1C(=O)N1CCC[C@H]1C(=O)N1CCC[C@H]1C(=O)N[C@@H](CO)C(N)=O` [WX-008] (H-Y[Aib]EGTFTSDYSI[Aib]LDKEAQKAFVK([AEEA-AEEA-γGlu-C20 diacid])WLIAGGPSSGAPPPS-NH2; lactam 17-20), for which the EC50 at GIPR (setting [1]) came out at 0.32 nM; at GLP-1R (setting [2]), 0.08 nM.

As for `CC[C@H](C)[C@H](NC(=O)[C@@H]1CCCCNC(=O)CC[C@H](NC(=O)[C@@H](NC(=O)[C@H](CO)NC(=O)[C@H](Cc2ccc(O)cc2)NC(=O)[C@H](CC(=O)O)NC(=O)[C@H](CO)NC(=O)[C@@H](NC(=O)[C@H](Cc2ccccc2)NC(=O)[C@@H](NC(=O)CNC(=O)[C@H](CCC(=O)O)NC(=O)C(C)(C)NC(=O)[C@@H](N)Cc2ccc(O)cc2)[C@@H](C)O)[C@@H](C)O)[C@@H](C)CC)C(=O)N[C@@H](CC(C)C)C(=O)N[C@@H](CC(=O)O)C(=O)N1)C(=O)N[C@@H](C)C(=O)N[C@@H](CCC(N)=O)C(=O)N[C@@H](CCCCNC(=O)COCCOCCNC(=O)COCCOCCNC(=O)CC[C@H](NC(=O)CCCCCCCCCCCCCCCCCCC(=O)O)C(=O)O)C(=O)N[C@@H](C)C(=O)N[C@@H](Cc1ccccc1)C(=O)N[C@H](C(=O)N[C@@H](CCC(N)=O)C(=O)N[C@@H](Cc1c[nH]c2ccccc12)C(=O)N[C@@H](CC(C)C)C(=O)N[C@H](C(=O)N[C@@H](C)C(=O)NCC(=O)NCC(=O)N1CCC[C@H]1C(=O)N[C@@H](CO)C(=O)N[C@@H](CO)C(=O)NCC(=O)N[C@@H](C)C(=O)N1CCC[C@H]1C(=O)N1CCC[C@H]1C(=O)N1CCC[C@H]1C(=O)N[C@@H](CO)C(N)=O)[C@@H](C)CC)C(C)C` [WX-010] (H-Y[Aib]EGTFTSDYSIELDKIAQK([AEEA-AEEA-γGlu-C20 diacid])AFVQWLIAGGPSSGAPPPS-NH2; lactam 13-16), the EC50 at GIPR (GIPR Agonist Activity EC50 (+) 1% HSA, with 1% HSA) amounted to 443 nM; at GIPR (setting [1]), 11.9 nM; on GLP-1R (GLP-IR Agonist Activity EC50 (+) 1% HSA, with 1% HSA), 34 nM; on GLP-1R (setting [2]), 0.0345 nM.
